Test results: patent US11376228B2 (Genifarm Laboratories Inc, priority 2018, dated 2022)
Read-outs that look alike come from different tables or passages of the source.

Key:
Format in all cases: cell-based
[1] = test system: human lung cancer cells A549; experiment: MTT assay, proliferation of human lung cancer cells A549; conditions: for inhibitory effects on human lung cancer cells A549 (in words): A549, summary of Table 3; for effect compared with control gossypol I-A9, A549: A549, versus gossypol I-A9; for IC50: Homo sapiens, read-out: IC50 on the proliferation of human lung cancer cells A5499
Description: (§1) The original culture medium for human lung cancer cells A549 was removed, and human lung cancer cells A549 were rinsed with 2 mL of phosphate buffer saline (PBS), digested with 0.5 mL of pancreatic enzyme for 3 min. 2 mL of culture medium was added to the cells and the mixture was transferred to a centrifuge tube. The mixture was centrifuged (200 g) for 5 min. The supernatant was removed. 2 mL of culture medium was sprayed five times to the remaining solution. 0.5 mL of cell suspension was transferred to an Eppendorf (EP) tube and the cells were counted. The cells were cultured on a 96-well plate, each well having 2000 cells, 3 wells for each compound. The numbers of the required cells and wells and the amount of culture medium were calculated. The cells were diluted by the culture medium. 100 μL culture medium was added to each well and were evenly dispersed, each well containing 2000 cells. The cells were transferred to the wells using a pipette, and cultured in an incubator.
(§2) (2) Adding Compounds to Culture Medium
(§3) The original culture medium was discarded, and the mother liquor of each compound was diluted to final concentrations of 0, 5, 10, 20, 30, 60 and 80 μM, respectively. Each diluent was uniformized. To each head of a multichannel pipette, 100 μL of the diluent was introduced. Three heads were employed. The diluents were added to 3 marked wells (the cells were undamaged) of a tilted 96-well plate, respectively. Different concentrations of diluents were added to three different marked wells and evenly mixed by alternately sucking and blowing with the multichannel pipette 3 times. The 96-well plate was shaken slightly twice, and cultured in a CO2 incubator.
(§4) The cells were cultured in different compounds for 48 h and were then detected. Specifically, a clean bench was turned on for 15 min, and phosphate buffer saline (PBS) was pre-heated in a warm water bath for 15 min. MTT was taken out of a refrigerator at −20 degrees, protected from light and thawed (MTT stock solution was 5 mg/mL). MTT and a culture medium were mixed evenly in a V-shaped groove to yield a mixture comprising 500 μg/mL MTT and a culture medium (a volume ratio thereof being 1:10). 100 μL of the prepared MTT mixture was added to each well of the 96-well plate using the multichannel pipette, and then incubated at 37° C. for an appropriate time (1 h), thereby reducing the MTT to formazan (purple crystals formed in the cells under a microscope, which were different in medicated cells and unmedicated cells). The upper liquid was removed with a white pipette tip attached to a vacuum pump. For each concentration of the compounds, 3 pipette tips were employed. After the incubation, the MTT mixture was discarded, and then 100 μL of DMSO was added to each well using the multichannel pipette. The 96-well plate was shaken in a shaker for 10 min (until the purple crystals were dissolved in the cells under the microscope).
The absorbance value of the resulting solution was detected at a wavelength of 550 nm with a microplate reader. The survival rate of cells treated with different concentrations of drugs was calculated in accordance with the requirements to make a scatter plot. The IC50 results of each compound on the proliferation of human lung cancer cells A549 were shown in Table 3, where Gossypol I-A9 is a control sample.

[2] = test system: human prostate cancer cells PC3; experiment: MTT assay, proliferation of human prostate cancer cells PC3; conditions: for IC50: Homo sapiens, 48 h, read-out: IC50 on the proliferation of human prostate cancer cells PC3; for inhibitory effects on human prostate cancer cells PC3 (in words): PC3, summary of Table 4; for effect compared with control gossypol I-A9, PC3: PC3, versus gossypol I-A9
[3] = test system: human ovarian cancer cells SKOV3; experiment: MTT assay, proliferation of human ovarian cancer cells SKOV3; conditions: for IC50: Homo sapiens, read-out: IC50 on the proliferation of human ovarian cancer cells SKOV3; for inhibitory effects on human ovarian cancer cells SKOV3 (in words): SKOV3, summary of Table 2; for effect compared with control gossypol I-A9, SKOV3: SKOV3, versus gossypol I-A9
Description: as §1, with “ovarian” for “lung”, “SKOV3” for “A549”
as §2
as §3, with “1, 2, 4, 8” for “5, 10, 20, 30, 60”, “16” for “80”
as §4
The absorbance value of the resulting solution was detected at a wavelength of 550 nm with a microplate reader. The survival rate of cells treated with different concentrations of drugs was calculated in accordance with the requirements to make a scatter plot. The IC50 results of each compound on the proliferation of human ovarian cancer cells SKOV3 were shown in Table 2, wherein Gossypol I-A9 is a control sample.

[4] = test system: human gastric cancer cells MKN45; experiment: MTT assay, proliferation of human gastric cancer cells MKN45; conditions: for IC50: Homo sapiens, read-out: IC50 on the proliferation of human gastric cancer cells MKN45; for inhibitory effects on human gastric cancer cells MKN45 (in words): MKN45, summary of Table 1
Description: as §1, with “gastric” for “lung”, “MKN45” for “A549”
as §2
as §3, with “15,” for “10, 20,”, “30, 45 and” for “30,”, “60” for “60 and 80”
as §4
The absorbance value of the cells was measured at a wavelength of 550 nm with a microplate reader. The survival rate of the cells treated with different concentrations of compounds was calculated to make a scatter plot. The IC50 results of each compound on the proliferation of human gastric cancer cells MKN45 were shown in Table 1, where Gossypol I-A9 is a control sample.

[5] = SK-OV-3, SKOV3, MTT, 48 h, 0-16 μM

Row | Structure (SMILES) | inhibitory effects on human lung cancer cells A549 (in words) [1] | effect compared with control gossypol I-A9, A549 [1] | IC50 ([1]; A549, MTT, 48 h, 0-80 μM) [µM] | IC50 ([2]; PC3, MTT, 0-32 μM) [µM] | inhibitory effects on human prostate cancer cells PC3 (in words) [2] | effect compared with control gossypol I-A9, PC3 [2] | IC50 [3, 5] [µM] | inhibitory effects on human ovarian cancer cells SKOV3 (in words) [3] | other results
1 | Cc1c(O)c(O)c(C=O)c(COCc2ccccc2)c1-c1ccccc1C#N [Compound I-28] | inhibitory effects | slightly inferior to that of the Gossypol I-A9 | 67.6 | – | – | – | – | – | –
2 | COc1ccc(-c2c(C)c(O)c(O)c(C=O)c2COCc2ccccc2)cc1 [Compound I-29] | inhibitory effects | slightly inferior to that of the Gossypol I-A9 | 42.1 | 4.26 | significant inhibitory effects | superior than the gossypol I-A9 | – | – | –
3 | Cc1cc(C)cc(-c2c(C)c(O)c(O)c(C=O)c2COCc2ccccc2)c1 [Compound I-45] | inhibitory effects | slightly inferior to that of the Gossypol I-A9 | 26 | 6.57 | significant inhibitory effects | superior than the gossypol I-A9 | – | – | –
4 | COC(=O)c1ccc(-c2c(C)c(O)c(O)c(C=O)c2Cc2c(OC)cc(OC)cc2OC)cc1 [Compound I-49] | – | – | – | 13.1 | significant inhibitory effects | – | 5.92 | significant inhibitory effects | effect compared with control gossypol I-A9, SKOV3 [3]: superior to that of the gossypol I-A9; IC50 ([4]; MKN-45, MKN45, MTT, 48 h, 0-60 μM): 3.12 µM; inhibitory effects on human gastric cancer cells MKN45 (in words) [4]: significant inhibitory effects; effect compared with control gossypol I-A9, MKN45 ([4]; MKN45, versus gossypol I-A9): better than the control gossypol I-A9
5 | COc1cc(OC)c(Cc2cc(C)c(O)c(O)c2CO)c(OC)c1 [Compound I-97] | – | – | – | – | – | – | ≥ 35 | – | inhibitory effects on human gastric cancer cells MKN45 (in words) [4]: significant inhibitory effects
6 | C#CCOCc1c(C=O)c(O)c(O)c(C)c1-c1ccccc1 [I-A2] | – | – | – | 5 | significant inhibitory effects | superior than the gossypol I-A9 | 11.5 | significant inhibitory effects | –
7 | COc1cccc2c(OC)c(Cc3cc(C)c(O)c(O)c3C=O)ccc12 [I-A3] | – | – | – | 6.54 | significant inhibitory effects | superior than the gossypol I-A9 | 6.45 | significant inhibitory effects | effect compared with control gossypol I-A9, SKOV3 [3]: superior to that of the gossypol I-A9
8 | Cc1cc(CSCc2ccccc2)c(C=O)c(O)c1O [I-A4] | inhibitory effects | slightly inferior to that of the Gossypol I-A9 | 58.9 | – | – | – | – | – | –
9 | COc1cc(OC)c(Cc2c(C#Cc3ccccc3)c(C)c(O)c(O)c2C=O)c(OC)c1 [I-A5] | – | – | – | 4.19 | significant inhibitory effects | superior than the gossypol I-A9 | 9.79 | significant inhibitory effects | –
10 | Cc1cc2c(C(C)C)c(O)c(O)c(C=O)c2c(O)c1-c1c(C)cc2c(C(C)C)c(O)c(O)c(C=O)c2c1O [I-A9, gossypol, reference compound] | – | – | – | – | – | – | – | – | IC50 ([1]; A549, 48 h): 18.1 µM; IC50 [2]: 10 µM; IC50 ([3]; SK-OV-3, 48 h): 9.55 µM; IC50 ([4]; MKN-45, 48 h): 15.4 µM
